In patent publication US20090068290A1, “BIFEPRUNOX DOSES FOR TREATING SCHIZOPHRENIA” (priority 2006, published 2009):

Key:
Assay type in all cases: in vivo, human
[1] = test system: patients with chronic schizophrenia; experiment: PANSS negative subscale score, Clinical Study Four; details: FAS, ANCOVA; for PANSS negative subscale, Adjusted Mean Change from Baseline (LS mean): LOCF; for mean PANSS negative subscale scores versus PBO, per-visit LOCF analysis: both BX doses
Experimental: (§1) METHODOLOGY: This study was a multinational, multicenter, randomized, double-blind, parallel-group, placebo-controlled, fixed-dose study. The study consisted of a 3- to 6-day antipsychotic-free run-in period, after which patients were randomised to 6 months of double-blind treatment with fixed doses of bifeprunox (20 mg/day (BX20) or 30 mg/day (BX30)) or placebo (PBO). Patients allocated to the BX groups were up-titrated from 0.25 mg/day over 7 days (BX20) or 8 days (BX30), and then continued on these doses for the remainder of the study. […] At predetermined time points, blood samples were obtained for drug concentration analysis of BX and its major metabolites (3′- and 4′-sulfate conjugates of BX), and pharmaco-economic assessments were performed.

[2] = test system: patients with chronic schizophrenia; experiment: CGI-I score and CGI-I responders (score 2 or less), Clinical Study Four; details: FAS; for proportion of patients with a CGI-I score ≦2 / CGI-I, Adjusted mean values (LS mean): LOCF; for CGI-I, Adjusted mean values (LS mean): adjusted mean values instead of change from baseline
Experimental: as §1
CLINICAL STUDY FOUR: The proportion of patients with a CGI-I score ≦2 at each visit (CGI-I responders; FAS, LOCF) is show below in FIG. 5.

[3] = Weight, BMI and waist measurement, Clinical Study Four
Experimental: as §1

[4] = BX20 (bifeprunox 20 mg), Last post-Baseline observation, APTS
[5] = BX20 (bifeprunox 20 mg), Month 3, APTS
[6] = BX20 (bifeprunox 20 mg), Month 6, APTS
[7] = BX20 (bifeprunox 20 mg), Week 6, APTS
[8] = BX20 (bifeprunox 20 mg), visit printed as Baseline, APTS
[9] = BX30 (bifeprunox 30 mg), Last post-Baseline observation, APTS
[10] = BX30 (bifeprunox 30 mg), Month 3, APTS
[11] = BX30 (bifeprunox 30 mg), Month 6, APTS
[12] = BX30 (bifeprunox 30 mg), Week 6, APTS

SMILES: O=c1[nH]c2cccc(N3CCN(Cc4cccc(-c5ccccc5)c4)CC3)c2o1 [Bifeprunox, 7-[4-([1,1′-biphenyl]-3-ylmethyl)-1-piperazinyl]-2(3H)-benzoxazolone]
- PANSS negative subscale, Adjusted Mean Change from Baseline (LS mean) ([1]; Month 6, listed as BX20): −1.6
- PANSS negative subscale, Adjusted Mean Change from Baseline (LS mean) ([1]; Month 6, listed as BX30): −1.7
- PANSS negative subscale, Adjusted Mean Change from Baseline (LS mean) ([1]; Week 6, listed as BX20): −2.0
- PANSS negative subscale, Adjusted Mean Change from Baseline (LS mean) ([1]; Week 6, listed as BX30): −1.6
- mean PANSS negative subscale scores versus PBO, per-visit LOCF analysis ([1]; listed as BX): statistically significantly superior to that with PBO at all time points, except at Weeks 2 and 4 for the BX30 group
- mean PANSS negative subscale scores versus PBO, per-visit LOCF analysis ([1]; listed as BX20): statistically significantly superior to that with PBO at all time points, except at Weeks 2 and 4 for BX30
- proportion of patients with a CGI-I score ≦2 ([2]; BX20, Month 6): 22%
- proportion of patients with a CGI-I score ≦2 ([2]; BX20, Week 6): 17%
- proportion of patients with a CGI-I score ≦2 ([2]; BX30, Month 6): 20%
- proportion of patients with a CGI-I score ≦2 ([2]; BX30, Week 6): 19%
- CGI-I, Adjusted mean values (LS mean) ([2]; Month 6, ANCOVA): 4.0
- CGI-I, Adjusted mean values (LS mean) ([2]; Week 6, ANCOVA, listed as BX20): 3.8
- CGI-I, Adjusted mean values (LS mean) ([2]; Week 6, ANCOVA, listed as BX30): 3.7
- mean CGI-I scores versus PBO, per-visit LOCF analysis ([2]; both BX doses, ANCOVA): statistically significantly superior to PBO from Week 6 onwards
- BMI, Mean [3, 4]: 24.3
- BMI, Median [3, 4]: 23.7
- Change from Baseline in BMI, Mean [3, 4]: −0.4
- Change from Baseline in BMI, Median [3, 4]: 0.0
- Change from Baseline in Weight, Mean [3, 4]: -1.0 kg
- Change from Baseline in Weight, Median [3, 4]: 0.0 kg
- Waist measurement, Mean [3, 4]: 81.6
- Waist measurement, Median [3, 4]: 79.5
- Weight PCS High (Increase from baseline >= 7%), (%) [3, 4]: (2.8) %
- Weight PCS Low (Decrease from baseline >= 7%), (%) [3, 4]: (9.1) %
- Weight, Mean [3, 4]: 69.7 kg
- Weight, Median [3, 4]: 68.0 kg
- BMI, Mean [3, 5]: 23.9
- BMI, Median [3, 5]: 23.1
- Change from Baseline in BMI, Mean [3, 5]: −0.2
- Change from Baseline in BMI, Median [3, 5]: 0.0
- Change from Baseline in Waist Measurement, Mean [3, 5]: −1.1
- Change from Baseline in Waist Measurement, Median [3, 5]: 0.0
- Change from Baseline in Weight, Mean [3, 5]: -0.6 kg
- Change from Baseline in Weight, Median [3, 5]: 0.0 kg
- Waist measurement, Mean [3, 5]: 79.5
- Waist measurement, Median [3, 5]: 76.5
- Weight PCS High (Increase from baseline >= 7%), (%) [3, 5]: (0.0) %
- Weight, Mean [3, 5]: 68.1 kg
- Weight, Median [3, 5]: 66.0 kg
- BMI, Mean [3, 6]: 23.9
- BMI, Median [3, 6]: 23.1
- Change from Baseline in BMI, Mean [3, 6]: −0.2
- Change from Baseline in BMI, Median [3, 6]: 0.0
- Change from Baseline in Waist Measurement, Mean [3, 6]: −0.9
- Change from Baseline in Waist Measurement, Median [3, 6]: 0.0
- Change from Baseline in Weight, Mean [3, 6]: -0.6 kg
- Change from Baseline in Weight, Median [3, 6]: 0.0 kg
- Waist measurement, Mean [3, 6]: 79.4
- Waist measurement, Median [3, 6]: 77.7
- Weight PCS High (Increase from baseline >= 7%), (%) [3, 6]: (6.8) %
- Weight PCS Low (Decrease from baseline >= 7%), (%) [3, 6]: (10.2) %
- Weight, Mean [3, 6]: 68.2 kg
- Weight, Median [3, 6]: 67.0 kg
- BMI, Mean [3, 7]: 24.3
- BMI, Median [3, 7]: 23.8
- Change from Baseline in BMI, Mean [3, 7]: −0.2
- Change from Baseline in BMI, Median [3, 7]: 0.0
- Change from Baseline in Waist Measurement, Mean [3, 7]: −1.1
- Change from Baseline in Waist Measurement, Median [3, 7]: 0.0
- Change from Baseline in Weight, Mean [3, 7]: -0.6 kg
- Change from Baseline in Weight, Median [3, 7]: 0.0 kg
- Waist measurement, Mean [3, 7]: 81.6
- Waist measurement, Median [3, 7]: 78.0
- Weight PCS High (Increase from baseline >= 7%), (%) [3, 7]: (0.0) %
- Weight PCS Low (Decrease from baseline >= 7%), (%) [3, 7]: (4.8) %
- Weight, Mean [3, 7]: 69.7 kg
- Weight, Median [3, 7]: 67.0 kg
- Change from Baseline in Waist Measurement, Mean [3, 8]: −0.0
- Change from Baseline in Waist Measurement, Median [3, 8]: 0.0
- BMI, Mean [3, 9]: 24.5
- BMI, Median [3, 9]: 23.7
- Change from Baseline in BMI, Mean [3, 9]: −0.4
- Change from Baseline in BMI, Median [3, 9]: 0.0
- Change from Baseline in Waist Measurement, Mean [3, 9]: −0.4
- Change from Baseline in Waist Measurement, Median [3, 9]: 4.4
- Change from Baseline in Weight, Mean [3, 9]: -1.2 kg
- Change from Baseline in Weight, Median [3, 9]: 0.0 kg
- Waist measurement, Mean [3, 9]: 82.6
- Waist measurement, Median [3, 9]: 80.4
- Weight PCS High (Increase from baseline >= 7%), (%) [3, 9]: (2.7) %
- Weight PCS Low (Decrease from baseline >= 7%), (%) [3, 9]: (9.5) %
- Weight, Mean [3, 9]: 70.9 kg
- Weight, Median [3, 9]: 68.5 kg
- BMI, Mean [3, 10]: 24.4
- BMI, Median [3, 10]: 23.4
- Change from Baseline in BMI, Median [3, 10]: −0.1
- Change from Baseline in Waist Measurement, Mean [3, 10]: −0.4
- Change from Baseline in Waist Measurement, Median [3, 10]: 0.0
- Change from Baseline in Weight, Mean [3, 10]: -1.1 kg
- Change from Baseline in Weight, Median [3, 10]: -0.5 kg
- Waist measurement, Mean [3, 10]: 81.6
- Waist measurement, Median [3, 10]: 79.5
- Weight PCS Low (Decrease from baseline >= 7%), (%) [3, 10]: (11.4) %
- Weight, Mean [3, 10]: 70.1 kg
- Weight, Median [3, 10]: 68.0 kg
- BMI, Mean [3, 11]: 24.4
- BMI, Median [3, 11]: 23.7
- Change from Baseline in BMI, Mean [3, 11]: −0.0
- Change from Baseline in BMI, Median [3, 11]: 0.0
- Change from Baseline in Waist Measurement, Mean [3, 11]: −0.0
- Change from Baseline in Waist Measurement, Median [3, 11]: 0.1
- Change from Baseline in Weight, Mean [3, 11]: -0.1 kg
- Change from Baseline in Weight, Median [3, 11]: 0.0 kg
- Waist measurement, Mean [3, 11]: 81.1
- Waist measurement, Median [3, 11]: 78.0
- Weight PCS High (Increase from baseline >= 7%), (%) [3, 11]: (7.3) %
- Weight PCS Low (Decrease from baseline >= 7%), (%) [3, 11]: (7.3) %
- Weight, Mean [3, 11]: 71.4 kg
- Weight, Median [3, 11]: 70.0 kg
- BMI, Mean [3, 12]: 24.8
- BMI, Median [3, 12]: 23.9
- Change from Baseline in BMI, Mean [3, 12]: −0.3
- Change from Baseline in BMI, Median [3, 12]: 0.0
- Change from Baseline in Waist Measurement, Mean [3, 12]: −0.0
- Change from Baseline in Waist Measurement, Median [3, 12]: 0.0
- Change from Baseline in Weight, Mean [3, 12]: -0.9 kg
- Change from Baseline in Weight, Median [3, 12]: 0.0 kg
- Waist measurement, Mean [3, 12]: 83.9
- Waist measurement, Median [3, 12]: 80.0
- Weight PCS High (Increase from baseline >= 7%), (%) [3, 12]: (0.0) %
- Weight PCS Low (Decrease from baseline >= 7%), (%) [3, 12]: (4.7) %
- Weight, Mean [3, 12]: 72.2 kg
- Weight, Median [3, 12]: 70.0 kg
